# Assay results from patent US9546173B2 (Novartis AG, priority 2012, dated 2017).
# Target: activated ERK2 (Homo sapiens (Human), UniProt P28482)
# Experiment: Activated ERK2 kinase assay (AlphaScreen, ERKtide peptide phosphorylation)
# Type: biochemical
# Conditions: […] ERK2, 200 nM ERKtide peptide, 35 μM ATP, 30 min preincubation; read-out: ERK2 IC50
# Source text: Production of Activated ERK2 Protein:
# Activated ERK2 protein was generated in insect cells by co-expression with a constitutively active form of MEK1. The ERK2 protein was expressed and purified as a nHis-PreScission-ERK2 tagged protein and then proteolytically processed to the full-length wild-type protein. […] Double-phosphorylated ERK2 protein was purified from the mixture by mono-Q column separation.
# Activated ERK2 Kinase Assay:
# A 16-point, half-log dilution series of compounds at 41× final concentration was used for generating IC50 curves. Compound dilution series were prepared in 100% DMSO. ERK2 was preincubated with compounds for 30 minutes at ambient temperature. Reaction was initiated by addition of a substrate cocktail of ERKtide peptide and ATP and was allowed to proceed for 2-3 hours at ambient temperature. Reaction was terminated by addition of 10 μL of a 2× stop buffer consisting of 100 mM Tris-Cl [pH 7.5], 25 mM EDTA, 0.01% Tween 20, 10 μg/mL of AlphaScreen Protein A Acceptor Beads, 10 μg/mL of Streptavidin Donor Beads (PerkinElmer, Waltham, Mass.), and 1.4 μg/mL phospho-EGF Receptor (Thr669) antibody (Cat #3056, Cell Signaling Technology, Danvers, Mass.). Terminated reactions were read, after overnight incubation in the dark, on an EnVision Multilabel Plate Reader (PerkinElmer, Waltham, Mass.), with excitation and emission wavelengths set to 680 nm and 570 nm, respectively. IC50 values were determined using a four-parameter fit.
# activated ERK2, sequence (P28482 whole entry): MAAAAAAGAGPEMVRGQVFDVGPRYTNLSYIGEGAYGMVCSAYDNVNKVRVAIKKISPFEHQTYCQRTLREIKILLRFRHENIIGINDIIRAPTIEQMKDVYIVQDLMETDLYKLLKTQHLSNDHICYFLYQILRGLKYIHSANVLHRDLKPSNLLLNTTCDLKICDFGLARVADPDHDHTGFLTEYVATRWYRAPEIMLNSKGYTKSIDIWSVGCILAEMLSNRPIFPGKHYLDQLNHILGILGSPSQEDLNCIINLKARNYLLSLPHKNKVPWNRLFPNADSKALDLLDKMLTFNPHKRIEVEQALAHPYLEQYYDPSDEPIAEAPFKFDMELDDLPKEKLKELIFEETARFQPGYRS
row,Structure (SMILES),IC50
1,"CC1(C)c2cnc(NC3CC3)nc2CN1C(=O)N[C@H](CO)c1ccccc1 [compound 31, (S)-2-(cyclopropylamino)-N-(2-hydroxy-1-phenylethyl)-5,5-dimethyl-5H-pyrrolo[3,4-d]pyrimidine-6(7H)-carboxamide]",317 nM
2,"CC1(C)c2cnc(NC3CCOCC3)nc2CN1C(=O)N[C@H](CN)c1ccccc1 [compound 32, (S)-N-(2-amino-1-phenylethyl)-5,5-dimethyl-2-((tetrahydro-2H-pyran-4-yl)amino)-5H-pyrrolo[3,4-d]pyrimidine-6(7H)-carboxamide]",14 nM
3,"CC(C)[C@@H](C)NC(=O)N1Cc2nc(NC3CCOCC3)ncc2C1(C)C [compound 33, (R)-5,5-dimethyl-N-(3-methylbutan-2-yl)-2-((tetrahydro-2H-pyran-4-yl)amino)-5H-pyrrolo[3,4-d]pyrimidine-6(7H)-carboxamide]",596 nM
4,"CC1(C)c2cnc(NC3CCOCC3)nc2CN1C(=O)NCc1cc[nH]c(=O)c1 [compound 34, 5,5-dimethyl-N-((2-oxo-1,2-dihydropyridin-4-yl)methyl)-2-((tetrahydro-2H-pyran-4-yl)amino)-5H-pyrrolo[3,4-d]pyrimidine-6(7H)-carboxamide]",5440 nM
5,"CC1(C)c2cnc(NC3CCOCC3)nc2CN1C(=O)NCc1ccc(Cl)cn1 [compound 35, N-((5-chloropyridin-2-yl)methyl)-5,5-dimethyl-2-((tetrahydro-2H-pyran-4-yl)amino)-5H-pyrrolo[3,4-d]pyrimidine-6(7H)-carboxamide]",106 nM
6,"CC1(C)c2cnc(NC3CCOCC3)nc2CN1C(=O)NC1(c2ccccc2)CC1 [compound 36, 5,5-dimethyl-N-(1-phenylcyclopropyl)-2-((tetrahydro-2H-pyran-4-yl)amino)-5H-pyrrolo[3,4-d]pyrimidine-6(7H)-carboxamide]",17 nM
7,"CC1(C)c2cnc(NC3CCOCC3)nc2CN1C(=O)NCC1CC1 [compound 37, N-(cyclopropylmethyl)-5,5-dimethyl-2-((tetrahydro-2H-pyran-4-yl)amino)-5H-pyrrolo[3,4-d]pyrimidine-6(7H)-carboxamide]",541 nM
8,"CC1(C)c2cnc(NC3CCOCC3)nc2CN1C(=O)N[C@H]1c2ccccc2C[C@H]1O [compound 38, N-((1S,2R)-2-hydroxy-2,3-dihydro-1H-inden-1-yl)-5,5-dimethyl-2-((tetrahydro-2H-pyran-4-yl)amino)-5H-pyrrolo[3,4-d]pyrimidine-6(7H)-carboxamide]",516 nM
9,"CC1(C)c2cnc(NC3CCOCC3)nc2CN1C(=O)N[C@@H]1c2ccccc2C[C@@H]1O [compound 39, N-((1R,2S)-2-hydroxy-2,3-dihydro-1H-inden-1-yl)-5,5-dimethyl-2-((tetrahydro-2H-pyran-4-yl)amino)-5H-pyrrolo[3,4-d]pyrimidine-6(7H)-carboxamide]",< 25000 nM
10,"C[C@H](NC(=O)N1Cc2nc(NC3CCOCC3)ncc2C1(C)C)c1ccccc1 [compound 40, (S)-5,5-dimethyl-N-(1-phenylethyl)-2-((tetrahydro-2H-pyran-4-yl)amino)-5H-pyrrolo[3,4-d]pyrimidine-6(7H)-carboxamide]",799 nM
11,"CC1(C)c2cnc(NC3CCOCC3)nc2CN1C(=O)N[C@@H]1CCCN(S(=O)(=O)c2ccccc2F)C1 [compound 41, (R)-N-(1-((2-fluorophenyl)sulfonyl)piperidin-3-yl)-5,5-dimethyl-2-((tetrahydro-2H-pyran-4-yl)amino)-5H-pyrrolo[3,4-d]pyrimidine-6(7H)-carboxamide]",13 nM
12,"CC1(C)c2cnc(NC3CCOCC3)nc2CN1C(=O)N[C@@H]1CCCN(S(=O)(=O)c2ccccc2)C1 [compound 42, (R)-5,5-dimethyl-N-(1-(phenylsulfonyl)piperidin-3-yl)-2-((tetrahydro-2H-pyran-4-yl)amino)-5H-pyrrolo[3,4-d]pyrimidine-6(7H)-carboxamide]",27 nM
13,"CC1(C)c2cnc(NC3CCOCC3)nc2CN1C(=O)NC1(c2ccccc2)CCOCC1 [compound 44, 5,5-dimethyl-N-(4-phenyltetrahydro-2H-pyran-4-yl)-2-((tetrahydro-2H-pyran-4-yl)amino)-5H-pyrrolo[3,4-d]pyrimidine-6(7H)-carboxamide]",2730 nM
14,"Cc1cc(Nc2ncc3c(n2)CN(C(=O)N[C@H](CO)c2ccccc2)C3(C)C)ccn1 [compound 45, (S)-N-(2-hydroxy-1-phenylethyl)-5,5-dimethyl-2-((2-methylpyridin-4-yl)amino)-5H-pyrrolo[3,4-d]pyrimidine-6(7H)-carboxamide]",625 nM
15,"CC1(C)c2cnc(NC3CCOCC3)nc2CN1C(=O)NCc1ccccc1 [compound 46, N-benzyl-5,5-dimethyl-2-((tetrahydro-2H-pyran-4-yl)amino)-5H-pyrrolo[3,4-d]pyrimidine-6(7H)-carboxamide]",31 nM
16,"CC1(C)c2cnc(NC3CCOCC3)nc2CN1C(=O)NCC1CCCCC1 [compound 47, N-(cyclohexylmethyl)-5,5-dimethyl-2-((tetrahydro-2H-pyran-4-yl)amino)-5H-pyrrolo[3,4-d]pyrimidine-6(7H)-carboxamide]",31 nM
17,"CNC(=O)N1Cc2nc(NC3CCOCC3)ncc2C1(C)C [compound 49, N,5,5-trimethyl-2-((tetrahydro-2H-pyran-4-yl)amino)-5H-pyrrolo[3,4-d]pyrimidine-6(7H)-carboxamide]",988 nM
18,"CCNC(=O)N1Cc2nc(NC3CCOCC3)ncc2C1(C)C [compound 50, N-ethyl-5,5-dimethyl-2-((tetrahydro-2H-pyran-4-yl)amino)-5H-pyrrolo[3,4-d]pyrimidine-6(7H)-carboxamide]",839 nM
19,"CC(C)NC(=O)N1Cc2nc(NC3CCOCC3)ncc2C1(C)C [compound 51, N-isopropyl-5,5-dimethyl-2-((tetrahydro-2H-pyran-4-yl)amino)-5H-pyrrolo[3,4-d]pyrimidine-6(7H)-carboxamide]",938 nM
20,"CC1(C)c2cnc(Nc3ccc(F)cc3)nc2CN1C(=O)N[C@H](CO)c1ccccc1 [compound 52, (S)-2-((4-fluorophenyl)amino)-N-(2-hydroxy-1-phenylethyl)-5,5-dimethyl-5H-pyrrolo[3,4-d]pyrimidine-6(7H)-carboxamide]",107 nM
21,"CC1(C)c2cnc(NCC3CC3)nc2CN1C(=O)N[C@H](CO)c1ccccc1 [compound 53, (S)-2-((cyclopropylmethyl)amino)-N-(2-hydroxy-1-phenylethyl)-5,5-dimethyl-5H-pyrrolo[3,4-d]pyrimidine-6(7H)-carboxamide]",505 nM
22,"CC1(C)c2cnc(NC3CC(F)(F)C3)nc2CN1C(=O)N[C@H](CO)c1ccccc1 [compound 54, (S)-2-((3,3-difluorocyclobutyl)amino)-N-(2-hydroxy-1-phenylethyl)-5,5-dimethyl-5H-pyrrolo[3,4-d]pyrimidine-6(7H)-carboxamide]",727 nM
23,"CC1(C)c2cnc(N[C@H]3C[C@@H](O)C3)nc2CN1C(=O)N[C@H](CO)c1ccccc1 [compound 55, N-((S)-2-hydroxy-1-phenylethyl)-2-(((1s,3R)-3-hydroxycyclobutyl)amino)-5,5-dimethyl-5H-pyrrolo[3,4-d]pyrimidine-6(7H)-carboxamide]",677 nM
24,"CC(=O)NCCNc1ncc2c(n1)CN(C(=O)N[C@H](CO)c1ccccc1)C2(C)C [compound 56, (S)-2-((2-acetamidoethyl)amino)-N-(2-hydroxy-1-phenylethyl)-5,5-dimethyl-5H-pyrrolo[3,4-d]pyrimidine-6(7H)-carboxamide]",3500 nM
25,"COCCNc1ncc2c(n1)CN(C(=O)N[C@H](CO)c1ccccc1)C2(C)C [compound 57, (S)-N-(2-hydroxy-1-phenylethyl)-2-((2-methoxyethyl)amino)-5,5-dimethyl-5H-pyrrolo[3,4-d]pyrimidine-6(7H)-carboxamide]",3480 nM
26,"CC1(C)c2cnc(NCCC#N)nc2CN1C(=O)N[C@H](CO)c1ccccc1 [compound 58, (S)-2-((2-cyanoethyl)amino)-N-(2-hydroxy-1-phenylethyl)-5,5-dimethyl-5H-pyrrolo[3,4-d]pyrimidine-6(7H)-carboxamide]",1530 nM
27,"CC1(C)c2cnc(N[C@H]3C[C@H](O)C3)nc2CN1C(=O)N[C@H](CO)c1ccccc1 [compound 59, N-((S)-2-hydroxy-1-phenylethyl)-2-(((1r,3S)-3-hydroxycyclobutyl)amino)-5,5-dimethyl-5H-pyrrolo[3,4-d]pyrimidine-6(7H)-carboxamide]",839 nM
28,"CC1(C)c2cnc(N[C@H]3CC[C@H](O)CC3)nc2CN1C(=O)N[C@H](CO)c1ccccc1 [compound 60, N-((S)-2-hydroxy-1-phenylethyl)-2-(((1r,4S)-4-hydroxycyclohexyl)amino)-5,5-dimethyl-5H-pyrrolo[3,4-d]pyrimidine-6(7H)-carboxamide]",82 nM
29,"CN1CCC(Nc2ncc3c(n2)CN(C(=O)N[C@H](CO)c2ccccc2)C3(C)C)CC1 [compound 61, (S)-N-(2-hydroxy-1-phenylethyl)-5,5-dimethyl-2-((1-methylpiperidin-4-yl)amino)-5H-pyrrolo[3,4-d]pyrimidine-6(7H)-carboxamide]",21000 nM
